The results in this text go back to patent US20230321104A1, “USE OF PYRIDO[1,2-A]PYRIMIDINONE COMPOUND IN TREATING PERIPHERAL T CELL LYMPHOMA” (CHIA TAI TIANQING PHARMACEUTICAL GROUP CO., LTD., priority 2020, published 2023).

This series deals with relapsed/refractory peripheral T-cell lymphoma (PTCL). Kind of series: Clinical trials on peripheral T-cell lymphoma. In kind it is in vivo, human. Conditions: for SPD (sum of products of maximum vertical diameters of multiple lesions): baseline 717 mm. The procedure: 2.1 Administration Regimen • Method of administration: orally administered once daily, 15 mg or 20 mg each time, with 21 consecutive days of administration as one cycle. • Drug: tablet of the compound of formula I, 5 mg or 20 mg.
2.2 Enrollment Criteria • 1) Histopathologically confirmed relapsed/refractory peripheral T-cell lymphoma (PTCL), including four subtypes: peripheral T-cell lymphoma, not otherwise specified (PTCL-NOS); angioimmunoblastic T-cell lymphoma (AITL); anaplastic large cell lymphoma (ALCL); and extranodal NK/T cell lymphoma (NKTCL), nasal type; • 2) Has previously received at least first-line systemic treatment regimen, had disease progression during or after the most recent treatment, or had no objective response after adequate treatment; • 3) At least one measurable target lesion present (evaluated according to the Lugano evaluation criteria, 2014 edition); • 4) Age ≥18 years; ECOG (PS) score: 0-2; expected survival time ≥3 months; • 5) Main organ functions in the screening phase meet the following criteria:
Criteria for Blood Routine Examination (No Growth Factor Used or No Blood Transfusion Conducted within 14 Days): • Absolute neutrophil count (ANC)≥1.0×10^9/L; • Lymphocyte count (LYM)≥0.5×10^9/L; • CD4+ T lymphocyte count≥0.2×10^9/L; • Platelet (PLT)≥75×10^9/L (for patients with lymphoma bone marrow infiltration, ≥50×10^9/L acceptable); • Hemoglobin (Hb)≥80 g/L;

Where [1] appears, read: patients with peripheral T-cell lymphoma, oral once daily 15 mg or 20 mg.

Consider `COc1ncc(-c2ccc3ncc(OCCN(C)C)c(=O)n3c2)cc1NS(=O)(=O)c1ccc(F)cc1Cl` [compound of formula I], for which the “objective response rate (ORR)” value (6 enrolled patients with peripheral T-cell lymphoma (3/6), oral once daily 15 mg or 20 mg, 21-day cycle, Lugano 2014 criteria) is recorded as 50%. In addition, the “SPD (sum of products of maximum vertical diameters of multiple lesions)” value reads like this: (Case 1, ALK negative anaplastic large cell lymphoma, 15 mg each day, after 2 cycles of medication) 495 mm; (Case 1, 15 mg each day, after 4 cycles of medication) 409 mm. Moreover, the overall therapeutic effect result (Case 1, ALK negative anaplastic large cell lymphoma, 15 mg each day, after 4 cycles) is on record as “complete response (CR)”. In addition, the new lesion result (Case 1, 15 mg each day, after 4 cycles) is reported as “no new lesion was found” and the new lesion result (Case 2, 15 mg each day, after 2 cycles of treatment) is recorded as “no new lesion was found”. Moreover, under “Case 1, 15 mg each day, after 4 cycles of medication, baseline 7.0”, the “SUVmax of the highest uptake lesion, the left parotid gland area (PET-CT)” value is listed as 1.5. Further, for the setting “Case 2, extranodal NK/T cell lymphoma, nasal type, 15 mg each day, after 2 cycles of treatment”, the therapeutic effect result is “partial response (PR)”. Also, the “SPD of measurable target lesions (enhanced MRI)” value (Case 2, extranodal NK/T cell lymphoma, nasal type, 15 mg each day, after 2 cycles of treatment, before treatment 280 mm) is recorded as 117 mm. Further, under “Case 2, 15 mg each day, after 2 cycles of treatment, versus 280 mm before treatment”, the “decrease of SPD” value amounted to 58.2%. For the same compound, the safety in treatment result under setting [1] is “good safety”. Further, under setting [1], the “therapeutic effect on peripheral T-cell lymphoma” value was “good therapeutic effect”.
